ChEMBL document CHEMBL6096628, “Discovery of a Highly Potent and Selective BRD9 PROTAC Degrader Based on E3 Binder Investigation for the Treatment of Hematological Tumors” (J Med Chem, 2024)
The source made the active and inactive calls. The rule behind the calls is not given here.

Columns and labels:
MV4-11 [1] = test: Induction of apoptosis in human MV4-11 cells assessed as early apoptotic cells at 10 nM incubated for 48 hrs by Annexin V-FITC/PI staining based flow cytometric analysis (reference value: 4.22 %); assay type: functional
MV4-11 [2] = test: Antitumor activity against human MV4-11 cells xenografted in Balb/c nude mouse assessed as tumor volume at 20 mg/kg, ip administered once daily for 20 days (reference value: 1187 +/- 449 mm^3); assay type: functional; conditions: time 20 day
[3] = target: T1, Protein cereblon/Bromodomain-containing protein 9 (Homo sapiens, UniProt Q9H8M2+Q96SW2); test: PROTAC activity at CRBN/BRD9 in human MV4-11 cells assessed as induction of BRD9 degradation at 10 nM by Western blot analysis relative to control; assay type: cell-based
Target sequence in this assay (Q96SW2 whole entry, looked up): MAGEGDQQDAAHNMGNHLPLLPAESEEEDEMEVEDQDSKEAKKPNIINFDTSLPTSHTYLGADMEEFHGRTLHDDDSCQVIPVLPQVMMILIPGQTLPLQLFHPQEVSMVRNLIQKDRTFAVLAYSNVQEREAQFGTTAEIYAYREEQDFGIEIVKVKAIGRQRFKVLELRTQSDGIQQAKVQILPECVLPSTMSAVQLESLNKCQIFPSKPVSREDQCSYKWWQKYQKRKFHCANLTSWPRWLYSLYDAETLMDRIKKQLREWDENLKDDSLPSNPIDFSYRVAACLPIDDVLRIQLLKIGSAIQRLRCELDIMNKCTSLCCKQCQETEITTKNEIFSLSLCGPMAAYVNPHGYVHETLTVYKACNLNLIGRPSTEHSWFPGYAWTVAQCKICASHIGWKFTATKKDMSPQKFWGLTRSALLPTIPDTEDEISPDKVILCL
Target sequence in this assay (Q9H8M2 whole entry, looked up): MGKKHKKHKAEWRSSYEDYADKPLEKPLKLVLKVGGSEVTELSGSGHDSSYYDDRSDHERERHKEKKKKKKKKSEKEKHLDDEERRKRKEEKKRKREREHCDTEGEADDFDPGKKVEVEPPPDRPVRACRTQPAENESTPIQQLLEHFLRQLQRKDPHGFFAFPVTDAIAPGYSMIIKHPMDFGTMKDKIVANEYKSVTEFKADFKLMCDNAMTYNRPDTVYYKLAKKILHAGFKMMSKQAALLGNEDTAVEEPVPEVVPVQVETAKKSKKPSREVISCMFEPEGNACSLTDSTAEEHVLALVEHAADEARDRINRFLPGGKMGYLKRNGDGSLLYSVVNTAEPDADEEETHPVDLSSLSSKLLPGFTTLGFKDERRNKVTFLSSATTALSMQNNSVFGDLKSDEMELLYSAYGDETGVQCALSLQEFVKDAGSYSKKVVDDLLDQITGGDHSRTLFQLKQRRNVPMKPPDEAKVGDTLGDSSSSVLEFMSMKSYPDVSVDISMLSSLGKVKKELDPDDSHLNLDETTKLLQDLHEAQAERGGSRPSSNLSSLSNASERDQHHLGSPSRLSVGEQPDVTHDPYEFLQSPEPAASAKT

MV4-11 [4] = test: Induction of apoptosis in human MV4-11 cells assessed as necrotic cells at 10 nM incubated for 48 hrs by Annexin V-FITC/PI staining based flow cytometric analysis (reference value: 0.07 %); assay type: functional
OCI-Ly10 [5] = test: Antitumor activity against human OCI-Ly10 cells xenografted in Balb/c nude mouse assessed as relative tumor volume at 30 mg/kg, po administered once daily for 18 days (reference value: 9.07 +/- 4.66); assay type: functional; conditions: time 18 day
[6] = target: T1, Protein cereblon/Bromodomain-containing protein 9; test: In vivo PROTAC activity at CRBN/BRD9 in Balb/c nude mouse xenografted with human MV4-11 cells assessed as induction of BRD9 degradation in tumor at 20 mg/kg, ip administered once daily for 20 days by Western blot analysis; assay type: functional, organism-based; conditions: time 20.0 day
Target sequence in this assay (Q96SW2 whole entry, looked up): as the sequence (Q96SW2 whole entry, looked up) above
Target sequence in this assay (Q9H8M2 whole entry, looked up): as the sequence (Q9H8M2 whole entry, looked up) above

[7] = target: T1, Protein cereblon/Bromodomain-containing protein 9; test: PROTAC activity at CRBN/BRD9 in human MV4-11 cells assessed as induction of BRD9 degradation at 0.33 nM in presence of MLN4924 by Western blot analysis; assay type: cell-based
Target sequence in this assay (Q96SW2 whole entry, looked up): as the sequence (Q96SW2 whole entry, looked up) above
Target sequence in this assay (Q9H8M2 whole entry, looked up): as the sequence (Q9H8M2 whole entry, looked up) above

MV4-11 [8] = test: Downregulation of beta-catenin expression level in human MV4-11 cells at 0.1 to 10 nM measured after 24 to 48 hrs by Western blot analysis; assay type: functional, cell-based; conditions: dose 0.1-10 nM, time 24-48 hrs
[9] = target: T1, Protein cereblon/Bromodomain-containing protein 9; test: PROTAC activity at CRBN/BRD9 in human MV4-11 cells assessed as induction of BRD9 degradation at 0.33 nM in presence of MG132 by Western blot analysis; assay type: cell-based
Target sequence in this assay (Q96SW2 whole entry, looked up): as the sequence (Q96SW2 whole entry, looked up) above
Target sequence in this assay (Q9H8M2 whole entry, looked up): as the sequence (Q9H8M2 whole entry, looked up) above

MV4-11 [10] = test: Upregulation of C-myc expression level in human MV4-11 cells at 0.1 to 10 nM measured after 24 to 48 hrs by Western blot analysis; assay type: functional, cell-based; conditions: dose 0.1-10 nM, time 24-48 hrs
[11] = target: T1, Protein cereblon/Bromodomain-containing protein 9; test: PROTAC activity at CRBN/BRD9 in human MV4-11 cells assessed as induction of BRD9 degradation by Western blot analysis; assay type: cell-based
MV4-11 [12] = test: Downregulation of AXIN2 mRNA expression level in human MV4-11 cells at 0.1 to 10 nM measured after 24 to 48 hrs by qPCR analysis; assay type: functional, cell-based; conditions: dose 0.1-10 nM, time 24-48 hrs
[13] = target: T1, Protein cereblon/Bromodomain-containing protein 9; test: PROTAC activity at CRBN/BRD9 in human MV4-11 cells assessed as induction of BRD9 degradation at 0.33 nM by Western blot analysis relative to control; assay type: cell-based; conditions: time 0.5-24 hrs
Target sequence in this assay (Q96SW2 whole entry, looked up): as the sequence (Q96SW2 whole entry, looked up) above
Target sequence in this assay (Q9H8M2 whole entry, looked up): as the sequence (Q9H8M2 whole entry, looked up) above

[14] = Cmax in ICR mouse at 20 mg/kg, IG administered via gavage and measured after 24 hrs by LC-MS analysis; assay type: ADME, organism-based; conditions: in vivo, po
Kasumi 1 = test: Antiproliferative activity against human Kasumi 1 cells assessed as inhibition of cell growth incubated for 7 days by MTS reagent based assay; assay type: functional; conditions: Kasumi 1, 168 h
[15] = target: T1, Protein cereblon/Bromodomain-containing protein 9; test: PROTAC activity at CRBN/BRD9 in human MV4-11 cells assessed as induction of BRD9 degradation at 0.33 nM in presence of pomalidomide by Western blot analysis; assay type: cell-based
Target sequence in this assay (Q96SW2 whole entry, looked up): as the sequence (Q96SW2 whole entry, looked up) above
Target sequence in this assay (Q9H8M2 whole entry, looked up): as the sequence (Q9H8M2 whole entry, looked up) above

[16] = target: T1, Protein cereblon/Bromodomain-containing protein 9; test: PROTAC activity at CRBN/BRD9 in human MV4-11 cells assessed as induction of BRD9 degradation at 0.33 nM measured after 4 hrs by Western blot analysis relative to control; assay type: cell-based
MV4-11 [17] = test: Induction of BRD7 degradation in human MV4-11 cells at 100 nM by Western blot analysis; assay type: cell-based
Mus musculus = test: Upregulation of BRD7 expression in Balb/c nude mouse tumor xenografted with human MV4-11 cells at 20 mg/kg, ip administered once daily for 20 days by Western blot analysis; assay type: functional, organism-based; conditions: time 20.0 day
MV4-11 [18] = test: Induction of apoptosis in human MV4-11 cells assessed as viable cells at 0.1 nM incubated for 48 hrs by Annexin V-FITC/PI staining based flow cytometric analysis (reference value: 94.80 %); assay type: functional; conditions: read-out: Activity
MV4-11 [19] = test: Induction of apoptosis in human MV4-11 cells assessed as early apoptotic cells at 0.01 nM incubated for 48 hrs by Annexin V-FITC/PI staining based flow cytometric analysis (reference value: 4.22 %); assay type: functional
SU-DHL-6 = test: Antiproliferative activity against human SU-DHL-6 cells assessed as inhibition of cell growth incubated for 7 days by MTS reagent based assay; assay type: functional; conditions: SU-DHL-6, 168 h
MV4-11 [20] = test: Induction of BRD4 degradation in human MV4-11 cells at 100 nM by Western blot analysis; assay type: cell-based
MV4-11 [21] = test: Induction of apoptosis in human MV4-11 cells assessed as viable cells at 10 nM incubated for 48 hrs by Annexin V-FITC/PI staining based flow cytometric analysis (reference value: 94.80 %); assay type: functional; conditions: read-out: Activity
MV4-11 [22] = test: Induction of apoptosis in human MV4-11 cells assessed as late apoptotic cells at 0.1 nM incubated for 48 hrs by Annexin V-FITC/PI staining based flow cytometric analysis (reference value: 0.91 %); assay type: functional
MV4-11 [23] = test: Induction of apoptosis in human MV4-11 cells assessed as viable cells at 1 nM incubated for 48 hrs by Annexin V-FITC/PI staining based flow cytometric analysis (reference value: 94.80 %); assay type: functional; conditions: read-out: Activity
OCI-Ly10 [24] = test: Antiproliferative activity against human OCI-Ly10 cells assessed as inhibition of cell growth incubated for 7 days by MTS reagent based assay; assay type: functional; conditions: OCI-Ly10, 168 h
MV4-11 [25] = test: Induction of apoptosis in human MV4-11 cells assessed as late apoptotic cells at 0.01 nM incubated for 48 hrs by Annexin V-FITC/PI staining based flow cytometric analysis (reference value: 0.91 %); assay type: functional
[26] = Toxicity in Balb/c nude mouse xenografted with human MV4-11 cells assessed as weight loss at 20 mg/kg, ip administered once a day for 20 days; assay type: organism-based; conditions: in vivo, 480 h, time 20 day
MV4-11 [27] = test: Antitumor activity against human MV4-11 cells xenografted in Balb/c nude mouse assessed as tumor weight at 20 mg/kg, ip administered once daily for 20 days (reference value: 1.30 +/- 0.51 g); assay type: functional; conditions: time 20 day
OCI-Ly10 [28] = test: Antitumor activity against human OCI-Ly10 cells xenografted in Balb/c nude mouse assessed as test to control ratio at 30 mg/kg, po administered once daily for 18 days relative to control; assay type: functional; conditions: time 18 day
MV4-11 [29] = test: Induction of apoptosis in human MV4-11 cells assessed as necrotic cells at 0.01 nM incubated for 48 hrs by Annexin V-FITC/PI staining based flow cytometric analysis (reference value: 0.07 %); assay type: functional
OCI-Ly10 [30] = test: Antitumor activity against human OCI-Ly10 cells xenografted in Balb/c nude mouse assessed as tumor mass at 30 mg/kg, po administered once daily for 18 days (reference value: 1.12 +/- 0.44 g); assay type: functional; conditions: time 18 day

Which Activity (MV4-11 [1]) does the source give for COc1cc(-c2cn(C)c(=O)c3ccccc23)cc(OC)c1CN1CCC(CN2CCC(c3ccc4c5c(cccc35)C(=O)N4C3CCC(=O)NC3=O)CC2)CC1 (centres undefined) here?
Its Activity is 16.97%.

And the Activity (MV4-11 [2])?
Its Activity is 766 mm3.

And the Activity [3]?
The Activity was 98.5%.

And the Activity (MV4-11 [4])?
The Activity was 0.21%.

What about the Activity (OCI-Ly10 [5]) of the same compound?
The Activity was 4.

And the Activity [6]?
Its Activity is “Active”.

And the Activity [7]?
The Activity was “Not active; Compound Functioned Through Ubiquitin-Proteasome System”.

And the Activity (MV4-11 [8])?
Its Activity is “Active”.

What about the Activity [9] of the same compound?
The Activity was “Not active; Compound Functioned Through Ubiquitin-Proteasome System”.

What about the Activity (MV4-11 [10]) of the same compound?
The Activity was “Active”.

And the Activity [11]?
The Activity was “Dose-dependent-effect”.

And the DC50 [11]?
The DC50 was 0.016 nM.

What about the Activity (MV4-11 [12]) of the same compound?
Its Activity is “Active”.

What about the Activity [13] of the same compound?
The Activity was “Time-dependent-effect”.

What about the Cmax [14] of the same compound?
Its Cmax is 127 ng/mL.

And the IC50 (Kasumi 1)?
Its IC50 is 1.13 nM.

What about the Activity [15] of the same compound?
Its Activity is “inactive”.

And the Activity [16]?
The Activity was 92%.

What about the Activity (MV4-11 [17]) of the same compound?
Its Activity is “inactive”.

And the Activity (Mus musculus)?
The Activity was “Active”.

And the viability at 0.0001 µM (MV4-11 [18])?
Its viability at 0.0001 µM is 87.4%.

What about the Activity (MV4-11 [19]) of the same compound?
Its Activity is 6.35%.

What about the IC50 (SU-DHL-6) of the same compound?
Its IC50 is 375 nM.

And the Activity (MV4-11 [20])?
The Activity was “inactive”.

And the viability at 0.01 µM (MV4-11 [21])?
The viability at 0.01 µM was 74.8%.

And the Activity (MV4-11 [22])?
Its Activity is 3.37%.

And the viability at 0.001 µM (MV4-11 [23])?
Its viability at 0.001 µM is 80.4%.

What about the IC50 (OCI-Ly10 [24]) of the same compound?
Its IC50 is 1.04 nM.

What about the Activity (MV4-11 [25]) of the same compound?
The Activity was 1.63%.

What about the Activity [26] of the same compound?
The Activity was “Non-toxic”.

What about the Activity (MV4-11 [27]) of the same compound?
The Activity was 0.9 g.

What about the T/C (OCI-Ly10 [28]) of the same compound?
The T/C was about 40%.

And the Activity (MV4-11 [29])?
The Activity was 0.03%.

And the Activity (OCI-Ly10 [30])?
Its Activity is 0.56 g.
